This assay has as its target Voltage-dependent N-type calcium channel subunit alpha-1B (Homo sapiens, UniProt Q00975). The assay can be described thus: In vitro antagonism of N-type voltage sensitive calcium channel in IMR-32 assay using fluorescent [Ca2+] indicator […] in the presence of 5 uM nitrendipine. It is filed as functional.

Sequence of Voltage-dependent N-type calcium channel subunit alpha-1B (Q00975 whole entry): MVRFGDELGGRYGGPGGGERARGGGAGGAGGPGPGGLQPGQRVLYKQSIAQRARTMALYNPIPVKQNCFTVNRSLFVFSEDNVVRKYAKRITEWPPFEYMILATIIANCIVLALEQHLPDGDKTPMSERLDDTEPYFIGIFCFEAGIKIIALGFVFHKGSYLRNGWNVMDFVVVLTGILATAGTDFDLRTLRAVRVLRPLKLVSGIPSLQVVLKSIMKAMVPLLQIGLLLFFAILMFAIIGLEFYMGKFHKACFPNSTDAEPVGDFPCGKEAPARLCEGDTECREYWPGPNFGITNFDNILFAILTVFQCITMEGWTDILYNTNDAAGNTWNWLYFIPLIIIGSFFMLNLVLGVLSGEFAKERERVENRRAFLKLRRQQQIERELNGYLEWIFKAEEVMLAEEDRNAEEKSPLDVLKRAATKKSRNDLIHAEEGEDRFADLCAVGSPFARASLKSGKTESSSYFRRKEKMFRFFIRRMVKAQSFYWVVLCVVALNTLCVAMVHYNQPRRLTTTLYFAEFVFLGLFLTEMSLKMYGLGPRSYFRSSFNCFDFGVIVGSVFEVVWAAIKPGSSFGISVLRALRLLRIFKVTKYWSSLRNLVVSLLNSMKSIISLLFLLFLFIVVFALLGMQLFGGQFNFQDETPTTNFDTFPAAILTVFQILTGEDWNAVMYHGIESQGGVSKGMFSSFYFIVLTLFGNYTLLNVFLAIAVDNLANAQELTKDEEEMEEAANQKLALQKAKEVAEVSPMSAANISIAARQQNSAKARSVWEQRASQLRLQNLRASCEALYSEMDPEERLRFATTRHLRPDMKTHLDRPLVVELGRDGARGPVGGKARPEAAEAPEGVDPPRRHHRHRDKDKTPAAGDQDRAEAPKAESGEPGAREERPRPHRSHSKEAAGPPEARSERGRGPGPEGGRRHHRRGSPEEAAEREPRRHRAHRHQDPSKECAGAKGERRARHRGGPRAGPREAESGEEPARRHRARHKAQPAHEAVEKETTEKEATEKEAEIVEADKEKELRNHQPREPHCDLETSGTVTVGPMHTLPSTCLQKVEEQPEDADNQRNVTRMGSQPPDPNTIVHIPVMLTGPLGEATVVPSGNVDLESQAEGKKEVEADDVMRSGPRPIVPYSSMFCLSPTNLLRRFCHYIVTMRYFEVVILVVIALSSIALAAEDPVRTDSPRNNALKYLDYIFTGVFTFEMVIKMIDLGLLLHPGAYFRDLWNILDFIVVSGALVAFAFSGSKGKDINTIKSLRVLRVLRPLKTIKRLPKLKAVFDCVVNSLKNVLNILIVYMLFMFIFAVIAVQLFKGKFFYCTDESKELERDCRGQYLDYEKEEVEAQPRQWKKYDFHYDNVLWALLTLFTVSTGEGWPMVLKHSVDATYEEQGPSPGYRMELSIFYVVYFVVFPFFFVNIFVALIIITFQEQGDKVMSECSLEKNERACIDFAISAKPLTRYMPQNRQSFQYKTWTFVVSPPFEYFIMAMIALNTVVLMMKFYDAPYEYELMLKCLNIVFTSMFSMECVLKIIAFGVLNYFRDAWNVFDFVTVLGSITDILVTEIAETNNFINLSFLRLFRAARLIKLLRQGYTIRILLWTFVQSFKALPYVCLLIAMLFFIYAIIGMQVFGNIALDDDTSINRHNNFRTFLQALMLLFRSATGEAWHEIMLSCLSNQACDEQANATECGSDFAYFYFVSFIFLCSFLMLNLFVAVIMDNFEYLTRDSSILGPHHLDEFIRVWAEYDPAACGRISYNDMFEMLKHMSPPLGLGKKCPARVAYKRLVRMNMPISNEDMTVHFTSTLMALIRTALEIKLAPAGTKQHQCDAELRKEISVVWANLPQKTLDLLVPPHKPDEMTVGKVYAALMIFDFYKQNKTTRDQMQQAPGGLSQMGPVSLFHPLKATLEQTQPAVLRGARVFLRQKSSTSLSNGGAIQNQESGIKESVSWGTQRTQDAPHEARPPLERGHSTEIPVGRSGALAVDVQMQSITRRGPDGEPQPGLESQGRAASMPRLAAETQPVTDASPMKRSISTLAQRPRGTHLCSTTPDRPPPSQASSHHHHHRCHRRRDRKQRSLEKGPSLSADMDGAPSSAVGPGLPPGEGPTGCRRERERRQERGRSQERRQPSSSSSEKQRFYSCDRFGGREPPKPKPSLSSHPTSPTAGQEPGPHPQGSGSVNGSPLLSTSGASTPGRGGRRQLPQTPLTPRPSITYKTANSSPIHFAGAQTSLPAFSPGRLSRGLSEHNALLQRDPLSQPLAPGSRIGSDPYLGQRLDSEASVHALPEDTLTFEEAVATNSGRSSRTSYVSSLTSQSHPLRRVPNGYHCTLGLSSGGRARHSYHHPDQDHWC

On to `CC(C)C[C@@H](C(=O)N[C@@H](Cc1ccc(OCc2ccccc2)cc1)C(=O)N1CCN(C)CC1)N(C)CC1CCCCC1`, for which the IC50 worked out at 1200 nM.

Turning to `CC(C)CCN(C)[C@@H](CC(C)C)C(=O)N[C@@H](Cc1ccc(OCc2ccccc2)cc1)C(=O)NC(C)(C)C`, the IC50 worked out at 320 nM. Consider `CC(C)CCN(C)[C@@H](CC(C)C)C(=O)N[C@@H](Cc1ccc(OCc2ccccc2)cc1)C(=O)N1CCCCC1`, for which the IC50 was determined as 660 nM. The same measure for `CC(C)C[C@@H](C(=O)N[C@@H](Cc1ccc(OCc2ccccc2)cc1)C(=O)NCCN1CCCCC1)N(C)C`: 4100 nM; for `CC(C)C[C@@H](C(=O)N[C@@H](Cc1ccc(OCc2ccccc2)cc1)C(=O)NC(C)(C)C)N(C)Cc1ccc(C(C)(C)C)cc1`: 40 nM; for `CC(C)CCN(C)[C@@H](CC(C)C)C(=O)N[C@@H](Cc1ccc(OCc2ccccc2)cc1)C(=O)NCCN1CCCCC1`: 1100 nM. Next, `CC(C)C[C@@H](C(=O)N[C@@H](Cc1ccc(OCc2ccccc2)cc1)C(=O)N1CCCCC1)N(C)Cc1ccc(C(C)(C)C)cc1`: 90 nM; `CC(C)C[C@@H](C(=O)N[C@@H](Cc1ccc(OCc2ccccc2)cc1)C(=O)N1CCCCC1)N(C)CC1CCCCC1`: 320 nM. Next, `CC(C)C[C@@H](C(=O)N[C@@H](Cc1ccc(OCc2ccccc2)cc1)C(=O)N1CCN(Cc2ccccc2)CC1)N(C)Cc1ccc(C(C)(C)C)cc1`: 500 nM. On to `CC(C)C[C@@H](C(=O)N[C@@H](Cc1ccc(OCc2ccccc2)cc1)C(=O)N1CCCCC1)N(C)C`, for which the IC50 was 1900 nM. The same measure for `CC(C)CCN(C)[C@@H](CC(C)C)C(=O)N[C@@H](Cc1ccc(OCc2ccccc2)cc1)C(=O)N1CCN(C)CC1`: 1200 nM; for `CC(C)C[C@@H](C(=O)N[C@@H](Cc1ccc(OCc2ccccc2)cc1)C(=O)N1CCN(Cc2ccccc2)CC1)N(C)C`: 1200 nM; for `CC(C)C[C@@H](C(=O)N[C@@H](Cc1ccc(OCc2ccccc2)cc1)C(=O)NCCN1CCCCC1)N(C)C1CCCCC1`: 880 nM. Next, `CC(C)C[C@@H](C(=O)N[C@@H](Cc1ccc(OCc2ccccc2)cc1)C(=O)NC1CCN(Cc2ccccc2)CC1)N(C)CC1CCCCC1`: 310 nM; `CC(C)C[C@@H](C(=O)N[C@@H](Cc1ccc(OCc2ccccc2)cc1)C(=O)NCCN1CCCCC1)N(C)CC1CCCCC1`: 1000 nM. On to `CC(C)C[C@@H](C(=O)N[C@@H](Cc1ccc(OCc2ccccc2)cc1)C(=O)NC(C)(C)C)N(C)C1CCCCC1`, for which the half-inhibitory concentration (IC50) turned out to be 200 nM. `CC(C)C[C@@H](C(=O)N[C@@H](Cc1ccc(OCc2ccccc2)cc1)C(=O)NC(C)(C)C)N(C)CC1CCCCC1`: the IC50 amounted to 500 nM.

`CC(C)C[C@@H](C(=O)N[C@@H](Cc1ccc(OCc2ccccc2)cc1)C(=O)NC1CCN(Cc2ccccc2)CC1)N(C)C1CCCCC1`: the IC50 was 1300 nM.

For the compound `CC(C)C[C@@H](C(=O)N[C@@H](Cc1ccc(OCc2ccccc2)cc1)C(=O)N1CCN(Cc2ccccc2)CC1)N(C)C1CCCCC1`, the IC50 was 760 nM. Next, `CC(C)C[C@@H](C(=O)N[C@@H](Cc1ccc(OCc2ccccc2)cc1)C(=O)NC(C)(C)C)N(C)C`: 2800 nM. Next, `CC(C)C[C@@H](C(=O)N[C@@H](Cc1ccc(OCc2ccccc2)cc1)C(=O)NC1CCN(Cc2ccccc2)CC1)N(C)Cc1ccc(C(C)(C)C)cc1`: 270 nM; `CC(C)CCN(C)[C@@H](CC(C)C)C(=O)N[C@@H](Cc1ccc(OCc2ccccc2)cc1)C(=O)N1CCN(Cc2ccccc2)CC1`: 590 nM; `CC(C)C[C@@H](C(=O)N[C@@H](Cc1ccc(OCc2ccccc2)cc1)C(=O)NCCN1CCCCC1)N(C)Cc1ccc(C(C)(C)C)cc1`: 310 nM. The same measure for `CC(C)CCN(C)[C@@H](CC(C)C)C(=O)N[C@@H](Cc1ccc(OCc2ccccc2)cc1)C(=O)NC1CCN(Cc2ccccc2)CC1`: 880 nM; for `CC(C)C[C@@H](C(=O)N[C@@H](Cc1ccc(OCc2ccccc2)cc1)C(=O)N1CCN(C)CC1)N(C)Cc1ccc(C(C)(C)C)cc1`: 440 nM; for `CC(C)C[C@@H](C(=O)N[C@@H](Cc1ccc(OCc2ccccc2)cc1)C(=O)N1CCN(Cc2ccccc2)CC1)N(C)CC1CCCCC1`: 420 nM. On to `CC(C)C[C@@H](C(=O)N[C@@H](Cc1ccc(OCc2ccccc2)cc1)C(=O)N1CCCCC1)N(C)C1CCCCC1`, for which the IC50 came out at 380 nM.

`CC(C)C[C@@H](C(=O)N[C@@H](Cc1ccc(OCc2ccccc2)cc1)C(=O)N1CCN(C)CC1)N(C)C1CCCCC1`: the IC50 is 5600 nM. Turning to `CC(C)C[C@@H](C(=O)N[C@@H](Cc1ccc(OCc2ccccc2)cc1)C(=O)N1CCN(C)CC1)N(C)C`, the IC50 turned out to be 13000 nM. For `CC(C)C[C@@H](C(=O)N[C@@H](Cc1ccc(OCc2ccccc2)cc1)C(=O)NC1CCN(Cc2ccccc2)CC1)N(C)C`, the IC50 worked out at 2600 nM.
